Where two headings read alike, the source gives them in different places.
Columns and labels:
[1] = in aquatic organisms; cited from earlier work
[2] = in human blood; cited from earlier work
[3] = system: Salmonella enterica ATCC 13311; assay: Broth microdilution MIC assay; type: cell-based; details: S. enterica (−); LB broth, 37° C
Excerpt: (§1) The following microorganisms were used (American Type Culture Collection (ATCC), Manassas, Vir., or La Colección Española de Cultivos Tipo (CECT), Valencia, Spain): Gram-positive bacteria Staphylococcus aureus ATCC 25923 and ATCC 6538, Staphylococcus epidermidis CECT 4184, Lactococcus lactis ATCC 7963, Streptococcus phocae ATCC51973, Lactococcus garvieae ATCC2155, Gram-negative bacteria Pseudomonas aeruginosa CECT 110 and ATCC 15692, Escherichia coli ATCC 11229, and Salmonella enterica ATCC 13311. The bacteria were grown at 37° C. in Luria-Bertani (LB) broth (Sigma-Aldrich Chemical Co.) (pH 7.3), which was also used for dilutions. The […] inhibitory concentration (MIC) values of PHMBG and the particles were determined in vitro using a broth microdilution assay. The polymer or nanoparticles were dissolved or dispersed, respectively, with brief sonication; into small stock samples of sterile deionized water (10 mL, 3 mg/mL). Serial dilutions between 5 and 300 mg/L final concentration in the liquid medium were dispensed into sterile 96-well polystyrene culture Corning® Costar® cell plates (Sigma-Aldrich Chemical Co.). The diluted samples were inoculated with a suspension of the test bacterium on the liquid medium to a final concentration of approximately 10^4 cfu/mL. The MIC was defined as the lowest concentration of PHMBG polymer, PHMBG-PEI-M or PHMBG-M/SiO2 particles that inhibited bacterial growth after […] at 37° C. Measurements were conducted in triplicate. The precision of the MIC values was limited by the dilution factor and was estimated to be ±5 mg/L, Negative control experiments were conducted with the dilutions without bactericidal additives and no reduction in bacterial counts after 24 h was observed.
(§2) For testing the antiseptic properties of the core-shell magnetic nanoparticles of the invention, five Gram-positive and three Gram-negative bacteria were chosen to represent a wide range of waterborne microorganisms, all of which are pathogenic with the exception of L. lactis, which is extensively used in buttermilk and cheese production. Gram-positive S. aureus and S. epidermidis are well-known human pathogens; S. phocae is a fish and seal pathogen; and L. garvieae causes septicemic infections of fish and is the main risk factor for the Mediterranean European trout industry. […] Both PHMBG-M/SiO2 (t) and PHMBG-M/SiO2 (s) particle species were tested, as well as PHMBG solutions and PHMBG-PEI-M particle suspensions.

Pseudomonas aeruginosa = assay: Broth microdilution MIC assay; type: cell-based; details: P. aeruginosa (−); LB broth, 37° C
Excerpt: as §1, §2

[4] = system: Escherichia coli ATCC 11229; assay: Broth microdilution MIC assay; type: cell-based; details: E. coli (−); LB broth, 37° C
Excerpt: as §1, §2

[5] = system: Lactococcus garvieae ATCC2155; assay: Broth microdilution MIC assay; type: cell-based; details: L. garvieae (+); LB broth, 37° C
Excerpt: as §1, §2

[6] = system: Staphylococcus epidermidis CECT 4184; assay: Broth microdilution MIC assay; type: cell-based; details: S. epidermidis (+); LB broth, 37° C
Excerpt: as §1, §2

[7] = system: Lactococcus lactis ATCC 7963; assay: Broth microdilution MIC assay; type: cell-based; details: L. lactis (+); LB broth, 37° C
Excerpt: as §1, §2

Staphylococcus aureus = assay: Broth microdilution MIC assay; type: cell-based; details: S. aureus (+); LB broth, 37° C
Excerpt: as §1, §2

[8] = system: Streptococcus phocae ATCC51973; assay: Broth microdilution MIC assay; type: cell-based; details: S. phocae (+); LB broth, 37° C
Excerpt: as §1, §2

Molecule	half-life [1]	half-life [2]	Minimum inhibitory concentrations (MIC) [3]	Minimum inhibitory concentrations (MIC) (Pseudomonas aeruginosa)	Minimum inhibitory concentrations (MIC) [4]	Minimum inhibitory concentrations (MIC) [5]	Minimum inhibitory concentrations (MIC) [6]	Minimum inhibitory concentrations (MIC) [7]	Minimum inhibitory concentrations (MIC) (Staphylococcus aureus)	Minimum inhibitory concentrations (MIC) [8]
[CH3][Hg][Cl] [methylmercury]	about 72 days	about 50 days	–	–	–	–	–	–	–	–
Poly(hexamethylene biguanide) [PHMBG]	–	–	110 µg/mL	30 µg/mL	5 µg/mL	40 µg/mL	0.5 µg/mL	20 µg/mL	5 µg/mL	1.6 µg/mL

— patent publication US8992985B2, “Core-shell magnetic particles and related methods” (priority 2010, dated 2015)
